According to patent publication US4031219A, “Bis-homophthalimides and salts thereof” (Boehringer Ingelheim GmbH, priority 1975, dated 1977):
≈ marks a conversion by molar mass, not a printed value. Read-outs that look alike come from different tables or passages of the source.

Legend:
[1] = system: isolated electrically stimulated left auricle of the guinea pig; assay: Effect on the effective refractory period of the isolated electrically stimulated left auricle of the guinea pig (maximum driving frequency); settings: Cavia porcellus, Tyrode solution 37° C, mean change 5 and 10 minutes after addition, graphically determined from dose-response-curves, read-out: EC50 (concentration which reduces the maximum driving frequency by 50%)
Experimental: 1. Effect on the effective refractory period of the isolated electrically stimulated left auricle of the guinea pig
Guinea pigs of both sexes were killed by a blow on the neck. After opening the thorax, the heart was quickly removed and transferred to a Tyrode solution (37° C). The auricles were therein dissected, and only the left auricles were used. Electrical stimulation was performed by a Grass Stimulator, S4G, with square wave impulses of 1 millisecond duration and a stimulation voltage of 12 V. The auricles were suspended in Tyrode solution at 37° C containing NaCl: 136.8 mval/liter; KCl: 2.68 mval/liter; MgCl2 : 0.2625 mval/liter; NaH2 PO4 : 0.417 mval/liter; NaHCO3 : 11.9 mval/liter; CaCl2 : 1.8 mval/liter; glucose: 3 gm. The solution was continuously oxygenated with 98% O2 and 2% CO2. The isometric contractions were measured with a force-displacement transducer and recorded on a Grass-polygraph (P5).
The auricles were stimulated with 0.5 Hz. The maximum driving frequency was measured by increasing the stimulation rate every 10 seconds by 1 Hz. Measurements were performed three times every 5 minutes before and 5 and 10 minutes after the addition of the test compound. During the rest periods between the measurements the stimulation frequency was 0.5 Hz.
The effect of the compound was calculated as the mean change of maximum driving frequency 5 and 10 minutes after adding the compound. The compound was tested by increasing the concentration to obtain dose-response-curves and to calculate the EC50.
The maximum driving frequency is measured by increasing the stimulation rate. When the interval between two stimuli is shortened, a stimulation rate is reached at which every second stimulation falls into the refractory period of the foregoing contraction and will not be answered with a contraction. Thus, the maximum driving frequency is a measure for the effective refractory period. Compounds which reduce the maximum driving frequency prolong the refractory period.
From the dose-response-curves the following concentrations, which reduce the maximum driving frequency by 50%, were graphically determined: […]

[2] = system: chloroform-induced ventricular fibrillation in mice; assay: Antiarrhythmic activity against chloroform-induced ventricular fibrillation in mice; assay type: in vivo; settings: Mus musculus, iv, 1 minute before inducing ventricular fibrillation; male mice 20-25 gm; read-out: ED50 (dose which reduces the number of animals which show fibrillations by 50%)
Experimental: 2. Antiarrhythmic activity against chloroform-induced ventricular fibrillation in mice
Upon putting a mouse into a chloroform-saturated atmosphere, the animal is anaesthetized after 40 seconds, the spontaneous respiration stops, and after 20 seconds more, gasping respiration is seen.
During 1 minute after opening the thorax spontaneous ventricular fibrillation can be obtained in nearly all the animals or can be induced in others by touching the heart with tweezers.
Pretreatment with antiarrhythmic compounds reduces the number of animals which show fibrillations in a dose-dependent way. The dose which reduces the number of animals by 50% (ED50) is calculated by means of dose-response-curves, and the standard error is determined [Miller, L.C. and Tainter, M.L., Proc. Soc. Exp. Biol. Med. 57, 261 (1944)].
The tests were performed on male mice having a body weight of 20-25 gm. Each dose was tested on 10 animals.
The compounds were administered intravenously 1 minute before inducing ventricular fibrillation.

Acute toxicity in mice = settings: mouse, in vivo, observation time: 14 days
Experimental: The acute toxicity of the test compounds was determined in mice (observation time: 14 days) after oral and/or intravenous application. The LD50 was calculated from the percentage of animals which died within the observation time after administration of various doses [see J. Pharmacol. exp. Therap. 96, 99 (1949)].

[3] = intravenous, read-out: LD50 i.v.

Structure (SMILES)	EC50 [1] [µg/mL]	ED50 [2] [mg/kg]	LD50 at 336 h (Acute toxicity in mice; oral, read-out: LD50 p.o.) [mg/kg]	LD50 at 336 h (Acute toxicity in mice; [3]) [mg/kg]
CN(CCCN1C(=O)c2ccccc2C(C)(C)C1=O)CCCN1C(=O)c2ccccc2C(C)(C)C1=O [A, n,n-bis-[3-(3,4-dihydro-4,4-dimethyl-1,3-dioxo-2-(1H)-isoquinolyl)-propyl]-methylamine]	5.5 (≈ 11.2 µM)	1.2	–	–
CC1(C)C(=O)N(CCCNCCCN2C(=O)c3ccccc3C(C)(C)C2=O)C(=O)c2ccccc21 [B, N,N-bis-[3-(3,4-dihydro-4,4-dimethyl-1,3-dioxo-2(1H)-isoquinolyl)propyl]-amine]	8 (≈ 16.8 µM)	2.5	123	–
CCN(CCCN1C(=O)c2ccccc2C(C)(C)C1=O)CCCN1C(=O)c2ccccc2C(C)(C)C1=O [C, n,n-bis-[3-(3,4-dihydro-4,4-dimethyl-1,3-dioxo-2(1H)-isoquinolyl)-propyl]-ethylamine]	2 (≈ 3.97 µM)	0.5	–	–
COc1ccc2c(c1)C(=O)N(CCN(C)CCCN1C(=O)c3ccccc3C(C)(C)C1=O)C(=O)C2(C)C [D, n-[2-(3,4-dihydro-7-methoxy-4,4-dimethyl-1,3-dioxo-2-(1H)-isoquinolyl)-ethyl]-N-[3-(3,4-dihydro-4,4-dimethyl-1,3-dioxo-2(1H)-isoquinolyl)-propyl]-methylamine]	4.2 (≈ 8.31 µM)	3.6	–	–
CN(CCN1C(=O)c2ccccc2C(C)(C)C1=O)CCN1C(=O)c2ccccc2C(C)(C)C1=O [F, n,n-bis-[2-(3,4-dihydro-4,4-dimethyl-1,3-dioxo-2(1H)-isoquinolyl)-ethyl]-methylamine]	–	4.6	–	–
CC1(C)C(=O)N(CCCNCCN2C(=O)c3ccccc3C(C)(C)C2=O)C(=O)c2ccccc21 [G, n-[2-(3,4-dihydro-4,4-dimethyl-1,3-dioxo-2(1H)-isoquinolyl)-ethyl]-N-[3-(3,4-dihydro-4,4-dimethyl-1,3-dioxo-2(1H)-isoquinolyl)-propyl]-amine]	2.7 (≈ 5.85 µM)	4.7	–	–
CC1(C)C(=O)N(CCCCNCCCN2C(=O)c3ccccc3C(C)(C)C2=O)C(=O)c2ccccc21 [H, [3-(3,4-dihydro-4,4-dimethyl-1,3-dioxo-2(1H)-isoquinolyl)-propyl]-[4-(3,4-dihydro-4,4-dimethyl-1,3-dioxo-2(1H)-isoquinolyl)-butyl]-amine]	10 (≈ 20.4 µM)	3	–	–
CC1(C)C(=O)N(CCNCCN2C(=O)c3ccccc3C(C)(C)C2=O)C(=O)c2ccccc21 [I, bis-[2-(3,4-dihydro-4,4-dimethyl-1,3-dioxo-2(1H)-isoquinolyl)-ethyl]-amine]	2.2 (≈ 4.92 µM)	4.7	315	15
CC1(C)C(=O)N(CCCCNCCN2C(=O)c3ccccc3C(C)(C)C2=O)C(=O)c2ccccc21 [J, [2-(3,4-dihydro-4,4-dimethyl-1,3-dioxo-2(1H)-isoquinolyl)-ethyl]-[4-(3,4-dihydro-4,4-dimethyl-1,3-dioxo-2(1H)-isoquinolyl)-butyl]-amine]	1.8 (≈ 3.78 µM)	2.8	210	10.5
